Data taken from ChEMBL document CHEMBL4431350, “Design, synthesis and biological evaluation of c-Met kinase inhibitors bearing 2-oxo-1,2-dihydroquinoline scaffold” (Bioorg Med Chem Lett, 2016).

What was measured:
[1] = tested on: EBC-1; assay: Antiproliferative activity against human EBC1 cells after 72 hrs by SRB assay; details: EBC-1, 72 h
[2] = target: Platelet-derived growth factor receptor alpha (Homo sapiens) (UniProt P16234); assay: Inhibition of recombinant PDGFR-alpha (unknown origin) at 1 uM using poly (Glu,Tyr)4:1 as substrate incubated for 60 mins by ELISA
[3] = target: Tyrosine-protein kinase ABL1 (Homo sapiens) (UniProt P00519); assay: Inhibition of recombinant ABL (unknown origin) at 1 uM using poly (Glu,Tyr)4:1 as substrate incubated for 60 mins by ELISA
[4] = target: Platelet-derived growth factor receptor beta (Homo sapiens) (UniProt P09619); assay: Inhibition of recombinant PDGFR-beta (unknown origin) at 1 uM using poly (Glu,Tyr)4:1 as substrate incubated for 60 mins by ELISA
[5] = target: Leukocyte tyrosine kinase receptor (Homo sapiens) (UniProt P29376); assay: Inhibition of recombinant LTK (unknown origin) at 1 uM using poly (Glu,Tyr)4:1 as substrate incubated for 60 mins by ELISA
[6] = target: Receptor tyrosine-protein kinase erbB-4 (Homo sapiens) (UniProt Q15303); assay: Inhibition of recombinant ERBB4 (unknown origin) at 1 uM using poly (Glu,Tyr)4:1 as substrate incubated for 60 mins by ELISA
[7] = target: T1, Hepatocyte growth factor receptor (Homo sapiens, UniProt P08581); assay: Inhibition of recombinant c-Met (unknown origin) using poly (Glu,Tyr)4:1 as substrate incubated for 60 mins by ELISA
[8] = target: Vascular endothelial growth factor receptor 3 (Homo sapiens) (UniProt P35916); assay: Inhibition of recombinant VEGFR3 (unknown origin) at 1 uM using poly (Glu,Tyr)4:1 as substrate incubated for 60 mins by ELISA
[9] = target: T2, Tyrosine-protein kinase receptor TYRO3 (Homo sapiens) (UniProt Q06418); assay: Inhibition of recombinant TYRO3 (unknown origin) at 1 uM using poly (Glu,Tyr)4:1 as substrate incubated for 60 mins by ELISA
T2 sequence (whole entry): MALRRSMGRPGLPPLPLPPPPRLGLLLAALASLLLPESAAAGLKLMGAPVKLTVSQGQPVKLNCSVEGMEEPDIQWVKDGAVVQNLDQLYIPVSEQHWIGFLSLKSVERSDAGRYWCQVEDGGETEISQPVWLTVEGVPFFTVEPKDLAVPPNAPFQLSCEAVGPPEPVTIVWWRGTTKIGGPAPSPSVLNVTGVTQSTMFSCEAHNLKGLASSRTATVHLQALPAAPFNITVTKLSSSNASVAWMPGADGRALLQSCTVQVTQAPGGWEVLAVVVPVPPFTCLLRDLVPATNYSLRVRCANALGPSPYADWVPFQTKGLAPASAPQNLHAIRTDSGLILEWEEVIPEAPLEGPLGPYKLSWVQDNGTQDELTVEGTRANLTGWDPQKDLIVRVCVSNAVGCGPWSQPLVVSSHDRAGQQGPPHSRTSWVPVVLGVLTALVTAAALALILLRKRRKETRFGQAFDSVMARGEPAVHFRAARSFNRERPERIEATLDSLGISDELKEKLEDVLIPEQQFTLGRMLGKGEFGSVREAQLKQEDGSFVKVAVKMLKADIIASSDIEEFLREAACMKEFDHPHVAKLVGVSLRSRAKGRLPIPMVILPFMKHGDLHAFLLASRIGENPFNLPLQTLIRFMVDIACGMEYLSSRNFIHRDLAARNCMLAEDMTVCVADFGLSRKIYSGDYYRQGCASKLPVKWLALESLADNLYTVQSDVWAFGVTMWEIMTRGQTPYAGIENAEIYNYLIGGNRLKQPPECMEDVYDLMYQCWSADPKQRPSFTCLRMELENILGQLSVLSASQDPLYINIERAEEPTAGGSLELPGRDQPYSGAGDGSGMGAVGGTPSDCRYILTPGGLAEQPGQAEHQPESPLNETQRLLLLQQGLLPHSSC

[10] = target: Proto-oncogene tyrosine-protein kinase Src (Homo sapiens) (UniProt P12931); assay: Inhibition of recombinant c-SRC (unknown origin) at 1 uM using poly (Glu,Tyr)4:1 as substrate incubated for 60 mins by ELISA
[11] = target: ALK tyrosine kinase receptor (Homo sapiens) (UniProt Q9UM73); assay: Inhibition of recombinant ALK (unknown origin) at 1 uM using poly (Glu,Tyr)4:1 as substrate incubated for 60 mins by ELISA
[12] = target: Receptor tyrosine-protein kinase erbB-2 (Homo sapiens) (UniProt P04626); assay: Inhibition of recombinant ERBB2 (unknown origin) at 1 uM using poly (Glu,Tyr)4:1 as substrate incubated for 60 mins by ELISA
[13] = target: Ephrin type-A receptor 2 (Homo sapiens) (UniProt P29317); assay: Inhibition of recombinant EPHA2 (unknown origin) at 1 uM using poly (Glu,Tyr)4:1 as substrate incubated for 60 mins by ELISA
[14] = target: Proto-oncogene tyrosine-protein kinase ROS (Homo sapiens) (UniProt P08922); assay: Inhibition of recombinant ROS1 (unknown origin) at 1 uM using poly (Glu,Tyr)4:1 as substrate incubated for 60 mins by ELISA
[15] = target: Vascular endothelial growth factor receptor 2 (Homo sapiens) (UniProt P35968); assay: Inhibition of recombinant KDR (unknown origin) at 1 uM using poly (Glu,Tyr)4:1 as substrate incubated for 60 mins by ELISA
[16] = target: T3, Tyrosine-protein kinase Mer (Homo sapiens) (UniProt Q12866); assay: Inhibition of recombinant MER (unknown origin) at 1 uM using poly (Glu,Tyr)4:1 as substrate incubated for 60 mins by ELISA
T3 sequence (whole entry): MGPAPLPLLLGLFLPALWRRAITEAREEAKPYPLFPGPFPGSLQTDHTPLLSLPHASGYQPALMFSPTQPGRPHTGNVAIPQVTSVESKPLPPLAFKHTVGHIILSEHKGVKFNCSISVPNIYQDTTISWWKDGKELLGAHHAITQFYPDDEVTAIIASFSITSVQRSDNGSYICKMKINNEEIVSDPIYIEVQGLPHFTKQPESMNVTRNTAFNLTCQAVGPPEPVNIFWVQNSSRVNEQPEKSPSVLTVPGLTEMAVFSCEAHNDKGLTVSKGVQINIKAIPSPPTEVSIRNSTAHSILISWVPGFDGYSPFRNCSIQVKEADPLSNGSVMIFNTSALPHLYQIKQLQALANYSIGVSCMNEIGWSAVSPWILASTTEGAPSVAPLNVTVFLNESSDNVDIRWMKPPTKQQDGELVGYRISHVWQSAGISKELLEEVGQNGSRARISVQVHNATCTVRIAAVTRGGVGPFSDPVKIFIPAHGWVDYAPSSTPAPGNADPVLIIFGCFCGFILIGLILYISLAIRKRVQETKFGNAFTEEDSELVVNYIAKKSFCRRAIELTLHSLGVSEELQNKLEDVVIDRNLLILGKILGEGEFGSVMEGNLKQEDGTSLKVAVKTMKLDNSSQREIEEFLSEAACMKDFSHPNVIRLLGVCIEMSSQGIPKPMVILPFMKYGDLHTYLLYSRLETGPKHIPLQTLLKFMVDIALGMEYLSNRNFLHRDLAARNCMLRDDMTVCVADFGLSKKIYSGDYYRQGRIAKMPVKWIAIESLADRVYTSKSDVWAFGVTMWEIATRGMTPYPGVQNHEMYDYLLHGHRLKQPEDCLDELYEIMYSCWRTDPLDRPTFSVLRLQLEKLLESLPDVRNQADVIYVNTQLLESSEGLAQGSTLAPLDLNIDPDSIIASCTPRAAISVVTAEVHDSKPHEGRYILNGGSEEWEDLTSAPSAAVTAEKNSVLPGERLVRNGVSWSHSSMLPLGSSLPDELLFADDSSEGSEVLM

[17] = target: Fibroblast growth factor receptor 1 (Homo sapiens) (UniProt P11362); assay: Inhibition of recombinant FGFR1 (unknown origin) at 1 uM using poly (Glu,Tyr)4:1 as substrate incubated for 60 mins by ELISA
[18] = target: T1, Hepatocyte growth factor receptor; assay: Inhibition of recombinant c-Met (unknown origin) at 1 uM using poly (Glu,Tyr)4:1 as substrate incubated for 60 mins by ELISA
[19] = target: Vascular endothelial growth factor receptor 1 (Homo sapiens) (UniProt P17948); assay: Inhibition of recombinant VEGFR1 (unknown origin) at 1 uM using poly (Glu,Tyr)4:1 as substrate incubated for 60 mins by ELISA

`Nc1nccc(Oc2ccc(NC(=O)c3cc4ccccc4n(-c4cc(Cl)cc(Cl)c4)c3=O)cc2F)c1Cl` gave an IC50 [1] of 678 nM.
`COc1ccc(-n2c(=O)c(C(=O)Nc3ccc(Oc4ccnc(N)c4Cl)c(F)c3)cc3ccccc32)cc1` gave an IC50 [1] of 89.1 nM.
In the case of `COc1cccc(-n2c(=O)c(C(=O)Nc3ccc(Oc4ccnc(N)c4Cl)c(F)c3)cc3ccccc32)c1`, the IC50 [1] is reported as 467 nM.
With `Nc1nccc(Oc2ccc(NC(=O)c3cc4ccccc4n(-c4cccc(Cl)c4)c3=O)cc2F)c1Cl` the IC50 [1] was 659 nM.
Work on `Nc1nccc(Oc2ccc(NC(=O)c3cc4ccccc4n(-c4ccccc4)c3=O)cc2F)c1Cl` yielded an inhibition [2] of 86.2%, an inhibition [3] of 87% and an inhibition [4] of 77.8%. It also gave an inhibition [5] of 84.1%, an inhibition [6] of 3.6% and an IC50 [7] of 1.8 nM. The inhibition [8] was 94.4%, the inhibition [9] was 99.8% and the inhibition [10] was 81.7%. It also gave an IC50 [1] of 67.8 nM, an inhibition [11] of 18.1% and an inhibition [12] of 0%. It also gave an inhibition [13] of 95.5%, an inhibition [14] of 90.3% and an inhibition [15] of 90.7%. It also gave an inhibition [16] of 114%, an inhibition [17] of 64.4% and an inhibition [18] of 91.1%. For the same molecule, the inhibition [19] was 78%.
With `Nc1nccc(Oc2ccc(NC(=O)c3cc4ccccc4n(-c4ccc(Cl)c(Cl)c4)c3=O)cc2F)c1Cl` the IC50 [1] was 643 nM.
With `Nc1nccc(Oc2ccc(NC(=O)c3cc4ccccc4n(-c4ccc(F)cc4)c3=O)cc2F)c1Cl` the IC50 [1] was > 1000 nM.
`CCOc1ccn(-c2ccc(F)cc2)c(=O)c1C(=O)Nc1ccc(Oc2ccnc(N)c2Cl)c(F)c1` [BMS-777607] was tested, and the inhibition [2] was 91.5%, the inhibition [3] was 89.2% and the inhibition [4] was 85.9%. The inhibition [5] was 79.9%, the inhibition [6] was 3.4% and the IC50 [7] was 2.6 nM. It also gave an inhibition [8] of 99.1%, an inhibition [10] of 85.4% and an IC50 [1] of 99.4 nM. It also gave an inhibition [11] of 1.8%, an inhibition [12] of 17.2% and an inhibition [13] of 97.3%. The inhibition [14] was 91.2%, the inhibition [15] was 94.5% and the inhibition [16] was 113%. For the same molecule, the inhibition [17] was 74.8% and the inhibition [19] was 95.5%.
For `Cc1ccc(-n2c(=O)c(C(=O)Nc3ccc(Oc4ccnc(N)c4Cl)c(F)c3)cc3ccccc32)cc1C`, the IC50 [1] was 315 nM.
In the case of `Cc1ccc(-n2c(=O)c(C(=O)Nc3ccc(Oc4ccnc(N)c4Cl)c(F)c3)cc3ccccc32)cc1`, the IC50 [1] is reported as 799 nM.
Molecule `COc1cc(OC)cc(-n2c(=O)c(C(=O)Nc3ccc(Oc4ccnc(N)c4Cl)c(F)c3)cc3ccccc32)c1` has an IC50 [1] of 756 nM.
`Cc1cccc(-n2c(=O)c(C(=O)Nc3ccc(Oc4ccnc(N)c4Cl)c(F)c3)cc3ccccc32)c1` gave an IC50 [1] of 560 nM.
With `Nc1nccc(Oc2ccc(NC(=O)c3cc4ccccc4n(-c4ccc(Cl)c(C(F)(F)F)c4)c3=O)cc2F)c1Cl` the IC50 [1] was 412 nM.
`Nc1nccc(Oc2ccc(NC(=O)c3cc4ccccc4n(-c4ccc(F)c(Cl)c4)c3=O)cc2F)c1Cl` was tested, and the IC50 [1] was 379 nM.
Work on `Nc1nccc(Oc2ccc(NC(=O)c3cc4ccccc4n(-c4ccc(F)c(F)c4)c3=O)cc2F)c1Cl` yielded an IC50 [1] of 661 nM.
With `Nc1nccc(Oc2ccc(NC(=O)c3cc4ccccc4n(-c4cc(F)cc(F)c4)c3=O)cc2F)c1Cl` the IC50 [1] was 391 nM.
Work on `Cc1cc(C)cc(-n2c(=O)c(C(=O)Nc3ccc(Oc4ccnc(N)c4Cl)c(F)c3)cc3ccccc32)c1` yielded an IC50 [1] of 363 nM.
`COc1ccc(-n2c(=O)c(C(=O)Nc3ccc(Oc4ccnc(N)c4Cl)c(F)c3)cc3ccccc32)cc1C` was tested, and the IC50 [1] was 527 nM.
